As usually defined, the Ki is a measure of affinity in units of concentration, obtained from inhibition or displacement. Low values mean higher affinity, high ones lower affinity. The Km is the substrate concentration at which the rate is half of its maximum.

The values that follow come from US7670806B2, “ADP-ribosyl acceptor hydrolase 3 (ARH3) polypeptides and methods of use” (The United States of America as represented by the …, priority 2005, dated 2010).

One data set has as its target T1, ARH3 (Mus musculus, UniProt Q8CG72).
T1 construct: The entire coding regions were ligated into pGEX-2T expression vector; GST (N); made in house; host or cells: E. coli BL21 Rosetta
T1 sequence (Q8CG72 1-370): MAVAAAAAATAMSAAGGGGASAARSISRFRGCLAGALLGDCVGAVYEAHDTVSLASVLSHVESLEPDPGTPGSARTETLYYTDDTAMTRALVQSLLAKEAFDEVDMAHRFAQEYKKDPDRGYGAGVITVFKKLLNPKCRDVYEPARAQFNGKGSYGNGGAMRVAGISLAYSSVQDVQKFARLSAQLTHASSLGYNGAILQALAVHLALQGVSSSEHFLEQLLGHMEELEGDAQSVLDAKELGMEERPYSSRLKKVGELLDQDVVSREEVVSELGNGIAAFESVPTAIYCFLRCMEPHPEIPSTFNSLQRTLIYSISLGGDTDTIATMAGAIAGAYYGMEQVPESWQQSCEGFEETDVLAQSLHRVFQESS
Description: Inhibition of ARH3-catalyzed hydrolysis of O-acetyl-ADP-ribose. The data set is classed as biochemical. Here is the method:
FIG. 15A is a graph of the results from an assay with 2 pmol of ARH3 and the indicated amount of ADP-ribose (●) or β-NAD (∘) in 200 μl for 2 h at 30° C., as described in FIG. 11B. FIG. 15B is a graph of the inhibition of ARH3 hydrolysis by ADP-ribose data schematized for Lineweaver-Burk plot.
Mouse ARH3 (2 pmol) and 2.5 μM O-acetyl-[^14C]ADP-ribose (5,000 cpm) in 200 μl of buffer containing 50 mM potassium phosphate (pH 7.0), 10 mM MgCl2 and 5 mM DTT were incubated for 2 h at 30° C., before separation of substrate and products using RP-HPLC as described below.
Hydrolysis of O-acetyl-[^14C]ADP-ribose catalyzed by ARH3. Assays containing the indicated concentration of O-acetyl-[^14C]-ADP-ribose (0.1 to 2 nmol, 1,000 to 20,000 cpm) and 1.5 pmol of ARH3 in 200 μl of buffer (50 mM KPO4 (pH 7.0), 10 mM MgCl2, 5 mM DTT) were incubated at 30° C. for 20 min. Substrate and products were separated using RP-HPLC. Amounts of product were corrected for ADP-ribose produced in the absence of ARH3 before calculation of hydrolysis rates.
ADP-ribose inhibited ARH3-catalyzed hydrolysis of 2.5 μM O-acetyl-ADP-ribose, ˜50% at a concentration of ca. 10 μM.

Data set [1] is described as follows: Poly(ADP-ribose) hydrolysis (autoradiography, high resolution PAGE, HPLC). The data set is classed as biochemical. The following applies: [32P]poly(ADP-ribose) or poly(ADP-ribose)PARP; 37° C.; autoradiography / PAGE / HPLC. Here is the method: Poly(ADP-ribose) hydrolysis by autoradiography. [^32P]poly(ADP-ribose)PARP (500 ng of PARP with poly(ADP-ribose) was incubated (37° C., 2 h) with 2 μM ARH in 25 μl of 50 mM potassium phosphate buffer, pH 7.5, with or without 10 mM MgCl2 and/or 5 mM DTT. Reactions were stopped by adding 6 μl of 5× Laemmli buffer. Samples (20 μl) of proteins were separated by SDS-PAGE in 4-20% gels and transferred to nitrocellulose membranes that were exposed to X-ray film (Kodak) for 10 h.
Hydrolysis of poly(ADP-ribose) by PARG and ARH3. Purified [^32P] poly(ADP-ribose) (5.5×10^5 cpm, ˜300 nM ADP-ribose) was incubated for the indicated time at 37° C. in 25 μl of 50 mM potassium phosphate, pH 7.5, containing 10 mM MgCl2 and 5 mM DTT with enzyme or other additions as indicated and terminated by addition of 25 μl of 2× electrophoresis buffer (Invitrogen). [^32P]AMP was generated by incubation (37° C., 3 h) of 10 μM [^32P] NAD (10 μCi/reaction) with pyrophosphatase (40 units/mg from SIGMA, 1 mg/ml) in 25 μl of 50 mM KPO4, pH 7.5, and 10 mM MgCl2. [^32P] […]
Poly(ADP-ribose)PARP was used as substrate to assay potential poly(ADP-ribose) hydrolase activities of recombinant ARH1, 2 or 3. […] Fractions (1 ml) were collected for liquid scintillation counting to quantify [^14C]ADP-ribose, which was eluted in fractions from 34 min to 43 min. […]

For data set [2] the following is noted: Rafty et al. (2002), cited from earlier work.

Regarding `Nc1ncnc2c1ncn2[C@@H]1O[C@H](COP(=O)(O)OP(=O)(O)OC[C@H]2OC(O)[C@H](O)[C@@H]2O)[C@@H](O)[C@H]1O` (some centres unmarked) [ADP-ribose], the “Inhibition of ARH3-catalyzed hydrolysis of O-acetyl-ADP-ribose” value on ARH3 (2.5 μM O-acetyl-ADP-ribose, inhibitor at ca. 10 μM, 2 pmol ARH3, 2 h at 30° C.) is reported as about 50%. The molecule also registered a Ki on ARH3 (Lineweaver-Burk plot, substrate O-acetyl-ADP-ribose) of 8.6 µM.

In the case of “ARH1: 39-kDa ADP-ribose-(arginine) protein hydrolase, recombinant mouse or human”, the “Poly(ADP-ribose) hydrolysis (in words)” value in data set [1] is recorded as “did not”.

As to “murine Nudix: murine Nudix family ADP-ribose pyrophosphatase (Rafty et al. 2002)”, the “kcat, O-acetyl-ADP-ribose” value in data set [2] was 0.78 ± 0.18 s⁻¹. The Michaelis-Menten constant (Km) in data set [2] (read-out: Km for O-acetyl-ADP-ribose) is 45 ± 0.9 µM.
